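Protocol summary: plate cells (96-well), add compound at 5 concentrations, incubate 48 h, interpolate endpoints linearly. Here, GI50 denotes the concentration required for 50% inhibition of growth.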 Activity calls are given as the source filed them. No stated cut-off is given here; in the data, active = GI50 up to about 1.1 µM and inactive = higher.
How the values were obtained:
Assay in all cases: NCI anticancer screen, dose series, 48 h
A498 = system: A498
CAKI-1 = system: CAKI-1
HOP-62 = system: HOP-62
Malme-3M = system: Malme-3M
NCI-H226 = system: NCI-H226
NCI-H522 = system: NCI-H522
RPMI-8226 = system: RPMI-8226
RXF 393 = system: RXF 393
SF-268 = system: SF-268
SK-MEL-28 = system: SK-MEL-28
SK-OV-3 = system: SK-OV-3
SNB-19 = system: SNB-19
SNB-75 = system: SNB-75
SW-620 = system: SW-620
TK-10 = system: TK-10
UACC-257 = system: UACC-257
HL-60 = system: HL-60
K562 = system: K562
SK-MEL-2 = system: SK-MEL-2

Measured: GI50

Cc1cnc(Cl)nc1C(C#N)c1nc2ccccc2s1 (stereo not drawn)
inactive: A498 25.2 µM | CAKI-1 22.4 µM | HOP-62 22.2 µM | Malme-3M 9.31 µM | NCI-H226 14.7 µM | NCI-H522 2.84 µM | RPMI-8226 12.6 µM | RXF 393 17.2 µM | SF-268 15.7 µM | SK-MEL-28 69 µM | SK-OV-3 18 µM | SNB-19 34.2 µM | SNB-75 18.8 µM | SW-620 33.6 µM | TK-10 24.8 µM | UACC-257 31.7 µM

O=[N+]([O-])c1ccc(/C=N/Nc2nc3ccccc3[nH]2)o1
inactive: CAKI-1 15.1 µM | HL-60 1.31 µM | HOP-62 15.8 µM | K562 13.1 µM | Malme-3M 13.8 µM | NCI-H226 22.2 µM | NCI-H522 13.3 µM | RPMI-8226 2.85 µM | RXF 393 14.6 µM | SF-268 24.4 µM | SK-MEL-28 8.91 µM | SK-OV-3 33.7 µM | SNB-19 26.5 µM | SNB-75 17.7 µM | SW-620 10.8 µM | TK-10 19.2 µM | UACC-257 21.2 µM

COCc1nc(C#N)c(N)o1
inactive: CAKI-1 > 10 µM | HL-60 > 10 µM | HOP-62 > 10 µM | K562 > 10 µM | Malme-3M > 10 µM | NCI-H226 > 10 µM | NCI-H522 > 10 µM | RPMI-8226 > 10 µM | RXF 393 > 10 µM | SF-268 > 10 µM | SK-MEL-28 > 10 µM | SK-OV-3 > 10 µM | SNB-19 > 10 µM | SNB-75 > 10 µM | SW-620 > 10 µM | TK-10 > 10 µM | UACC-257 > 10 µM

O=[N+]([O-])c1ccc(Cl)cc1N/N=C/c1ccnc2ccccc12
inactive: CAKI-1 > 100 µM | HL-60 > 100 µM | HOP-62 > 100 µM | K562 > 100 µM | NCI-H226 > 100 µM | NCI-H522 > 100 µM | RPMI-8226 > 100 µM | RXF 393 36.9 µM | SF-268 > 100 µM | SK-MEL-28 > 100 µM | SK-OV-3 > 100 µM | SNB-19 > 100 µM | SNB-75 31.1 µM | SW-620 > 100 µM | TK-10 > 100 µM | UACC-257 > 100 µM

N=C(N)NS(=O)(=O)c1ccc(NNC(=O)c2cccc3c(O)c4ccccc4nc23)cc1
inactive: CAKI-1 34.6 µM | HL-60 27 µM | HOP-62 22 µM | K562 24 µM | Malme-3M 19.6 µM | NCI-H226 25.5 µM | NCI-H522 21.6 µM | RPMI-8226 37.2 µM | RXF 393 38.1 µM | SF-268 33.7 µM | SK-MEL-28 26.2 µM | SK-MEL-2 25.1 µM | SK-OV-3 29.6 µM | SNB-19 48.6 µM | SNB-75 30.7 µM | SW-620 32.7 µM | TK-10 44.8 µM | UACC-257 31.6 µM

c1cc(-c2ccc(-c3ccc(-c4ccc(-c5cccc6nsnc56)[nH]4)c4nsnc34)[nH]2)c2nsnc2c1
inactive: HL-60 1.53 µM | HOP-62 > 100 µM | K562 > 100 µM | Malme-3M > 100 µM | NCI-H226 > 100 µM | NCI-H522 > 100 µM | RPMI-8226 > 100 µM | SF-268 > 100 µM | SK-MEL-28 > 100 µM | SK-MEL-2 > 100 µM | SK-OV-3 > 100 µM | SNB-19 > 100 µM | SNB-75 > 100 µM | SW-620 > 100 µM | TK-10 > 100 µM

CCNC1=C(NC(=O)CCl)C(=O)c2ccccc2C1=O
inactive: HL-60 34.1 µM | HOP-62 16.5 µM | K562 25.5 µM | Malme-3M 19.9 µM | NCI-H226 22 µM | NCI-H522 15.1 µM | RPMI-8226 34 µM | RXF 393 16.7 µM | SF-268 18.1 µM | SK-MEL-28 17.6 µM | SK-OV-3 > 10 µM | SNB-19 26.7 µM | SNB-75 > 10 µM | SW-620 25.8 µM | TK-10 17.7 µM | UACC-257 > 10 µM

COC(=O)[C@@H]1C[C@H]2OC(=O)CC[C@]2(C)O[C@H]1[C@H]1O[C@@](C)(O)CCC[C@H]1C
inactive: CAKI-1 > 50 µM | HL-60 8.95 µM | HOP-62 > 50 µM | K562 > 50 µM | Malme-3M > 50 µM | NCI-H226 > 50 µM | NCI-H522 28.6 µM | RPMI-8226 > 50 µM | RXF 393 > 50 µM | SF-268 > 50 µM | SK-MEL-28 > 50 µM | SK-MEL-2 > 50 µM | SK-OV-3 > 50 µM | SNB-19 > 50 µM | SW-620 > 50 µM | TK-10 > 50 µM | UACC-257 > 50 µM

O=[N+]([O-])/C(C(Cl)=C(Cl)Cl)=C(\Nc1cccc2ccccc12)Sc1ccccc1
inactive: A498 11 µM | CAKI-1 15.5 µM | HOP-62 23.9 µM | K562 57.3 µM | Malme-3M 17.5 µM | NCI-H226 16.1 µM | RPMI-8226 6.89 µM | RXF 393 12.9 µM | SF-268 12.9 µM | SK-MEL-28 18.7 µM | SK-MEL-2 14.6 µM | SK-OV-3 26.1 µM | SNB-19 18.8 µM | SNB-75 19.2 µM | SW-620 8.53 µM | UACC-257 14.8 µM

CN1CCN(C(=S)N(C)C(=O)c2ccc(Cl)cc2)CC1
inactive: HL-60 > 100 µM | K562 > 100 µM | Malme-3M > 100 µM | NCI-H226 > 100 µM | NCI-H522 > 100 µM | RPMI-8226 > 100 µM | RXF 393 > 100 µM | SF-268 > 100 µM | SK-MEL-28 > 100 µM | SK-MEL-2 > 100 µM | SNB-19 > 100 µM | SNB-75 > 100 µM | SW-620 > 100 µM | TK-10 > 100 µM | UACC-257 > 100 µM

Nc1c(C(=O)O)c2ccc([N+](=O)[O-])cc2c(=O)n1-c1nc2ccccc2s1
inactive: A498 > 100 µM | CAKI-1 > 100 µM | HOP-62 > 100 µM | K562 > 100 µM | Malme-3M > 100 µM | NCI-H226 > 100 µM | NCI-H522 > 100 µM | RPMI-8226 > 100 µM | RXF 393 > 100 µM | SF-268 > 100 µM | SK-MEL-28 > 100 µM | SK-MEL-2 > 100 µM | SK-OV-3 > 100 µM | SNB-19 > 100 µM | SNB-75 > 100 µM | SW-620 > 100 µM

C=C1c2nc3ccccc3n2C=C(c2ccccc2)N1c1ccc(C)cc1
inactive: A498 52.7 µM | CAKI-1 32.8 µM | K562 31.5 µM | Malme-3M > 100 µM | NCI-H226 68.7 µM | NCI-H522 35.1 µM | RPMI-8226 19.5 µM | RXF 393 59.6 µM | SK-MEL-2 > 100 µM | SK-OV-3 > 100 µM | SNB-19 > 100 µM | SNB-75 > 100 µM | SW-620 71.1 µM | TK-10 79.3 µM | UACC-257 80.4 µM

CCOC(=O)c1ccc(/N=N/N(C)C(=O)C(C)N)cc1 (stereo not drawn)
inactive: CAKI-1 92.5 µM | HL-60 > 100 µM | HOP-62 > 100 µM | K562 > 100 µM | Malme-3M > 100 µM | NCI-H226 > 100 µM | NCI-H522 86.5 µM | RPMI-8226 > 100 µM | RXF 393 > 100 µM | SF-268 > 100 µM | SK-MEL-28 > 100 µM | SK-MEL-2 > 100 µM | SNB-19 > 100 µM | SNB-75 55.8 µM | SW-620 > 100 µM | TK-10 > 100 µM | UACC-257 > 100 µM

CC(C)(C)[Si](C)(C)OCC1CCC(n2cnc3c(=O)[nH]cnc32)O1 (stereo not drawn)
inactive: CAKI-1 > 100 µM | HL-60 74.8 µM | HOP-62 > 100 µM | K562 85.7 µM | Malme-3M 78.9 µM | NCI-H226 77.6 µM | NCI-H522 > 100 µM | RPMI-8226 65.5 µM | RXF 393 > 100 µM | SF-268 > 100 µM | SK-MEL-28 > 100 µM | SK-MEL-2 > 100 µM | SK-OV-3 > 100 µM | SNB-19 > 100 µM | SNB-75 20.3 µM | SW-620 > 100 µM | TK-10 > 100 µM | UACC-257 > 100 µM

O=C1Cc2c([nH]c3ccc(Br)cc23)-c2cc(O)c(O)cc2N1
inactive: A498 > 100 µM | CAKI-1 > 100 µM | HOP-62 > 100 µM | K562 > 100 µM | NCI-H226 > 100 µM | NCI-H522 > 100 µM | RPMI-8226 > 100 µM | RXF 393 > 100 µM | SF-268 > 100 µM | SK-MEL-28 > 100 µM | SK-MEL-2 > 100 µM | SK-OV-3 > 100 µM | SNB-19 > 100 µM | SNB-75 > 100 µM | SW-620 > 100 µM | TK-10 > 100 µM | UACC-257 > 100 µM

COc1ccc2c(c1OC)C(=O)O[C@@H]2[C@H]1c2c(cc3c(c2OC)OCO3)CCN1C [NOSCAPINE]
inactive: A498 > 100 µM | CAKI-1 63 µM | HOP-62 71.4 µM | K562 33 µM | Malme-3M 33.5 µM | NCI-H226 > 100 µM | NCI-H522 30.3 µM | RPMI-8226 23.3 µM | RXF 393 > 100 µM | SF-268 71.8 µM | SK-MEL-28 42.1 µM | SK-MEL-2 34.1 µM | SK-OV-3 73.1 µM | SNB-19 80.5 µM | SNB-75 4.86 µM | SW-620 27 µM | UACC-257 55.1 µM

From ChEMBL document CHEMBL1201862, “PubChem BioAssay data set” (2004)
